Where “and” joins values, the source holds several entries; their conditions need not be identical. Identical values can stand only once. Toxic doses and inconclusive results are not listed. Peptide text beside a SMILES is read from it.

This experiment relates to P388 leukemia ip, CD2F1 mice, survival T/C. In words: NCI In Vivo Anticancer Drug Screen. Data for tumor model P388 Leukemia (intraperitoneal) in CD2F1 (CDF1) mice. The settings on record: endpoint: median survival time, higher = longer survival. The essentials:
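Mice carrying the transplanted tumor received test compound or vehicle. Survival was recorded in each group, and the value is the treated-group measurement divided by that of the vehicle-treated control group.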

[1] abbreviates: dose: 50.0 mg/kg/injection, schedule: Q01DX005 (ip), vehicle: saline with Tween-80.
Setting [2] is: dose: 100.0 mg/kg/injection, schedule: Q01DX005 (ip), vehicle: saline with Tween-80.
The mark [3] stands for this setting: dose: 200.0 mg/kg/injection, schedule: Q01DX005 (ip), vehicle: saline with Tween-80.
The mark [4] stands for this setting: dose: 60.0 mg/kg/injection, schedule: Q01DX005 (ip), vehicle: saline with Tween-80.
[5] abbreviates: dose: 100.0 mg/kg/injection, schedule: Q01DX009 (ip), vehicle: saline with Tween-80.
The mark [6] stands for this setting: dose: 200.0 mg/kg/injection, schedule: Q01DX009 (ip), vehicle: saline with Tween-80.
[7] abbreviates: dose: 400.0 mg/kg/injection, schedule: Q01DX009 (ip), vehicle: saline with Tween-80.
Setting [8] is: dose: 50.0 mg/kg/injection, schedule: Q01DX009 (ip), vehicle: saline with Tween-80.
The mark [9] stands for this setting: dose: 50.0 mg/kg/injection, schedule: Q01DX009 (ip), vehicle: Klucel (hydroxypropylcellulose) (HPC).
Setting [10] is: dose: 100.0 mg/kg/injection, schedule: Q01DX009 (ip), vehicle: Klucel (hydroxypropylcellulose) (HPC).
Where [11] appears, read: dose: 200.0 mg/kg/injection, schedule: Q01DX009 (ip), vehicle: Klucel (hydroxypropylcellulose) (HPC).
The mark [12] stands for this setting: dose: 6.25 mg/kg/injection, schedule: Q01DX009 (ip), vehicle: saline with Tween-80.
Setting [13] is: dose: 6.25 mg/kg/injection, schedule: Q04DX003 (ip), vehicle: saline with Tween-80.
Where [14] appears, read: dose: 12.5 mg/kg/injection, schedule: Q01DX009 (ip), vehicle: saline with Tween-80.
Setting [15] is: dose: 25.0 mg/kg/injection, schedule: Q01DX009 (ip), vehicle: saline with Tween-80.
Setting [16] is: dose: 120.0 mg/kg/injection, schedule: Q01DX005 (ip), vehicle: saline with Tween-80.
[17] abbreviates: dose: 240.0 mg/kg/injection, schedule: Q01DX005 (ip), vehicle: saline with Tween-80.
[18] abbreviates: dose: 50.0 mg/kg/injection, schedule: Q01DX009 (ip), vehicle: saline.

As to `CN(C)c1ccc(P(=O)(O)O)cc1`, the T/C is, setting by setting: under setting [1], 96 % of control; under setting [2], 99 % of control; under setting [3], 91 % of control.
Take `O=[N+]([O-])c1cn(CCNc2c3ccccc3nc3ccccc23)cn1`: under setting [4], the T/C was 112 % of control.
For the molecule `CC(O)C(N)C(=O)NC(Cc1ccc(O)cc1)C(=O)NC(CO)C(=O)NC(CCCCN)C(=O)O` (stereo not drawn) (H-TYSK-OH; configuration not given here), the T/C by setting is: (dose: 50.0 mg/kg/injection, schedule: Q01DX005 (ip), vehicle: saline) 99 % of control; (dose: 100.0 mg/kg/injection, schedule: Q01DX005 (ip), vehicle: saline) 107 % of control; (dose: 200.0 mg/kg/injection, schedule: Q01DX005 (ip), vehicle: saline) 106 % of control.
Turning to `Cc1ccc(C(=O)C2CC(Br)C(Br)CC2C(=O)c2ccc(C)cc2)cc1` (stereo not drawn), the T/C was 91 % of control under setting [5], 91 % of control under setting [6] and 87 % of control under setting [7].
For the molecule `CCN(CC)C1CC(O[C@H]2C[C@](O)(C(=O)CO)Cc3c(O)c4c(c(O)c32)C(=O)c2c(OC)cccc2C4=O)OC(C)C1O` (stereo partly drawn), the T/C is 153 % of control (dose: 1.56 mg/kg/injection, schedule: Q01DX009 (ip), vehicle: water); 165 % of control and 178 % of control (dose: 3.13 mg/kg/injection, schedule: Q01DX009 (ip), vehicle: water).
Consider `C=C1C(=O)OC2CC(C)/C=C\C(=O)C(C)(O)C(O)C(O)C12` (stereo not drawn) (tested in a mixture with another compound), for which the T/C is 113 % of control (dose: 12.5 mg/kg/injection, schedule: Q01DX001 (ip), vehicle: Klucel (hydroxypropylcellulose) (HPC)) and 105 % of control (dose: 25.0 mg/kg/injection, schedule: Q01DX001 (ip), vehicle: Klucel (hydroxypropylcellulose) (HPC)).
Consider `Nc1nnc(N)n1N`, for which the T/C under setting [8] is 108 % of control, the T/C under setting [5] is 115 % of control, the T/C under setting [6] is 99 % of control and the T/C under setting [7] was 93 % of control.
For `CSC1=NC(=S)C(C)(C)NN1`, the T/C (dose: 100.0 mg/kg/injection, schedule: Q04DX002 (ip), vehicle: Klucel (hydroxypropylcellulose) (HPC)) is 104 % of control.
In the case of `Cc1ccc(/C=N/n2c(-c3ccccc3Cl)nc3ccccc3c2=O)cc1`, the T/C reads like this: under setting [1], 96 % of control; under setting [2], 93 % of control; under setting [3], 91 % of control.
Consider `CCOC(=O)C(N=Nc1ccc(Br)c(C)c1)C(C)=O` (stereo not drawn), for which the T/C is 107 % of control under setting [1], 93 % of control under setting [2] and 97 % of control under setting [3].
`C/C(=N/NS(=O)(=O)c1c(C(C)C)cc(C(C)C)cc1C(C)C)c1cccc2c1OCO2`: the T/C is, setting by setting: (dose: 15.0 mg/kg/injection, schedule: Q01DX005 (ip), vehicle: saline with Tween-80) 91 % of control; (dose: 30.0 mg/kg/injection, schedule: Q01DX005 (ip), vehicle: saline with Tween-80) 93 % of control; under setting [4], 87 % of control and 92 % of control.
Regarding `COc1ccc2c(Cc3ccccc3)c3[n+](cc2c1OC)CCc1cc2c(cc1-3)OCO2`, the T/C is 113 % of control (dose: 1.56 mg/kg/injection, schedule: Q01DX005 (ip), vehicle: Klucel (hydroxypropylcellulose) (HPC)); 115 % of control (dose: 3.12 mg/kg/injection, schedule: Q01DX005 (ip), vehicle: Klucel (hydroxypropylcellulose) (HPC)); 113 % of control and 115 % of control (dose: 6.25 mg/kg/injection, schedule: Q01DX005 (ip), vehicle: Klucel (hydroxypropylcellulose) (HPC)); 118 % of control (dose: 12.5 mg/kg/injection, schedule: Q01DX005 (ip), vehicle: Klucel (hydroxypropylcellulose) (HPC)).
Regarding `NC(=O)C(CCc1nc2ccccc2[nH]1)NS(=O)(=O)c1ccccc1` (stereo not drawn), the T/C is 102 % of control under setting [9], 101 % of control under setting [10] and 102 % of control under setting [11].
Take `O=S(=O)(Oc1cccc(C(F)(F)F)c1)c1cccc(C(F)(F)F)c1`: the T/C is, setting by setting: under setting [12], 100 % of control; under setting [13], 100 % of control; under setting [14], 91 % of control; (dose: 12.5 mg/kg/injection, schedule: Q04DX003 (ip), vehicle: saline with Tween-80) 100 % of control; under setting [15], 91 % of control; (dose: 25.0 mg/kg/injection, schedule: Q04DX003 (ip), vehicle: saline with Tween-80) 100 % of control.
Turning to `CCCCN(CCCC)CC(O)c1c2cccc(Cl)c2cc2c(Cl)cccc12` (stereo not drawn), the T/C was 98 % of control and 99 % of control under setting [8]; 99 % of control and 92 % of control under setting [5]; 90 % of control under setting [6]; 90 % of control under setting [7].
Turning to `COc1cc(OC)c(Cc2cc3c(cc2OC)OCO3)c(OC)c1`, the T/C under setting [4] was 91 % of control, the T/C under setting [16] was 87 % of control and the T/C under setting [17] was 87 % of control.
In the case of `C(NC=C(c1ccccc1)c1ccccc1)=C(c1ccccc1)c1ccccc1`, the T/C runs as follows: (dose: 100.0 mg/kg/injection, schedule: Q01DX001 (ip), vehicle: Klucel (hydroxypropylcellulose) (HPC)) 103 % of control; (dose: 200.0 mg/kg/injection, schedule: Q01DX001 (ip), vehicle: Klucel (hydroxypropylcellulose) (HPC)) 107 % of control; (dose: 400.0 mg/kg/injection, schedule: Q01DX001 (ip), vehicle: Klucel (hydroxypropylcellulose) (HPC)) 103 % of control.
As to `O=C(NN1CCOCC1)C(F)(F)F`, the T/C is 100 % of control (dose: 100.0 mg/kg/injection, schedule: Q01DX001 (ip), vehicle: saline); 99 % of control (dose: 200.0 mg/kg/injection, schedule: Q01DX001 (ip), vehicle: saline); 99 % of control (dose: 400.0 mg/kg/injection, schedule: Q01DX001 (ip), vehicle: saline).
Turning to `CCCCCCCCC[N+]1([O-])CCCCCC1`, the T/C is, setting by setting: (dose: 12.5 mg/kg/injection, schedule: Q01DX009 (ip), vehicle: saline) 100 % of control; (dose: 25.0 mg/kg/injection, schedule: Q01DX009 (ip), vehicle: saline) 99 % of control; under setting [18], 105 % of control and 107 % of control.
On to `CC(C)CC(NC(=O)C(CCCCN)N(C(=O)OCc1ccccc1)C(=O)OCc1ccccc1)C(=O)O` (stereo not drawn), for which the T/C is 99 % of control under setting [1], 99 % of control under setting [2] and 90 % of control under setting [3].
With `CCOC(=O)NC(=O)c1c(C)oc(C)cc1=O`, the T/C is 118 % of control under setting [9], 115 % of control under setting [10] and 107 % of control under setting [11].
As to `Cc1ccc(NC(=O)NCCCCCCNC(=O)Nc2ccc(C)cc2)cc1`, the T/C is, setting by setting: under setting [4], 96 % of control; under setting [16], 94 % of control; under setting [17], 106 % of control.
In the case of `CCN(CCP(c1ccccc1)c1ccccc1)CCP(c1ccccc1)c1ccccc1`, the T/C runs as follows: (dose: 0.75 mg/kg/injection, schedule: Q04DX003 (ip), vehicle: saline with Tween-80) 109 % of control; (dose: 1.5 mg/kg/injection, schedule: Q04DX003 (ip), vehicle: saline with Tween-80) 109 % of control; (dose: 3.0 mg/kg/injection, schedule: Q04DX003 (ip), vehicle: saline with Tween-80) 118 % of control; (dose: 3.13 mg/kg/injection, schedule: Q04DX003 (ip), vehicle: saline with Tween-80) 118 % of control; under setting [13], 118 % of control; (dose: 100.0 mg/kg/injection, schedule: Q04DX003 (ip), vehicle: saline with Tween-80) 100 % of control and 87 % of control.
On to `CCCCCCCCCCCCCC[N+]1([O-])CCCC1`, for which the T/C under setting [18] was 94 % of control.
In the case of `C[n+]1noc([O-])c1-c1ccccc1`, the T/C is, setting by setting: under setting [8], 102 % of control; under setting [5], 104 % of control.
For `CC1OC(CC(=O)O)Cc2c1c(O)c1c(O)cc(-c3cc(=O)c4c(=O)c5c(c(=O)c=4c3=O)CC(CC(=O)O)OC5C)c(O)c1c2O` (stereo not drawn), the T/C by setting is: under setting [12], 100 % of control; under setting [14], 102 % of control; under setting [15], 103 % of control.

The record behind these values is PubChem BioAssay AID330 (DTP/NCI, 2004).
